Laboratory results from US7141533B2, “Hetaryl-substituted heterocycles” (Bayer CropScience AG, priority 2000, dated 2006).

Experiments:
rice = assay: Post-emergence test; assay type: in vivo; conditions: 250 g ai/ha, after three weeks
Experimental: (§1) [table] To produce a suitable preparation of active compound, 1 part by weight of active compound is mixed with the stated amount of solvent, the stated amount of emulsifier is added and the concentrate is diluted with water to the desired concentration. Test plants of a height of 5 to 15 cm are sprayed with the preparation of active compound such that the particular amounts of active compound desired are applied per unit area. The concentration of the spray liquor is chosen such that the particular amounts of active compound desired are applied in 1000 1 of water/ha. After three weeks, the degree of damage to the plants is rated in % damage in comparison to the development of the untreated control. [table]

Stellaria = assay: Post-emergence test; assay type: in vivo; conditions: 250 g ai/ha, after three weeks
Experimental: as §1

Echinochloa = assay: Post-emergence test; assay type: in vivo; conditions: after three weeks
Experimental: as §1

Digitaria = assay: Post-emergence test; assay type: in vivo; conditions: after three weeks
Experimental: as §1

Avena fatua [1] = assay: Post-emergence test; assay type: in vivo; conditions: after three weeks
Experimental: as §1

[2] = system: larvae of the mustard beetle (Phaedon cochleariae); assay: Phaedon larvae test; assay type: in vivo; conditions: cabbage leaves dipped
Experimental: (§2) [table] To produce a suitable preparation of active compound, 1 part by weight of active compound is mixed with the stated amounts of solvent and emulsifier, and the concentrate is diluted with emulsifier-containing water to the desired concentration. Cabbage leaves (Brassica oleracea) are treated by being dipped into the preparation of active compound of the desired concentration and are populated with the larvae of the mustard beetle (Phaedon cochleariae) while the leaves are still moist. After the desired period of time, the kill in % is determined. 100% means that all beetle larvae have been killed; 0% means that none of the beetle larvae have been killed.

Amaranthus = assay: Post-emergence test; assay type: in vivo; conditions: 250 g ai/ha, after three weeks
Experimental: as §1

Abutilon = assay: Post-emergence test; assay type: in vivo; conditions: 250 g ai/ha, after three weeks
Experimental: as §1

Alopecurus = assay: Post-emergence test; assay type: in vivo; conditions: after three weeks
Experimental: as §1

Setaria [3] = assay: Post-emergence test; assay type: in vivo; conditions: 250 g ai/ha, after three weeks
Experimental: as §1

[4] = system: caterpillars of the army worm (Spodoptera frugiperda); assay: Spodoptera frugiperda test; assay type: in vivo; conditions: cabbage leaves dipped
Experimental: as §2, with “caterpillars” for “the larvae”, “army worm (Spodoptera frugiperda)” for “mustard beetle (Phaedon cochleariae)”, “caterpillars” for “beetle larvae”

[5] = system: greenhouse red spider mite (Tetranychus urticae); assay: Tetranychus test (OP-resistant/dip treatment); assay type: in vivo; conditions: bean plants dipped, OP-resistant
Experimental: [table] To produce a suitable preparation of active compound, 1 part by weight of active compound is mixed with the stated amounts of solvent and emulsifier, and the concentrate is diluted with emulsifier-containing water to the desired concentration. Bean plants (Phaseolus vulgaris) which are heavily infested by all stages of the greenhouse red spider mite (Tetranychus urticae) are dipped into a preparation of active compound of the desired concentration. After the desired period of time, the effect in % is determined. 100% means that all spider mites have been killed. 0% means that none of the spider mites have been killed.

[6] = system: peach aphid (Myzus persicae); assay: Myzus test; assay type: in vivo; conditions: cabbage leaves dipped
Experimental: as §2, with “oleracea) which are heavily infested by the peach aphid (Myzus persicae)” for “oleracea)”, “concentration.” for “concentration and are populated with the larvae of the mustard beetle (Phaedon cochleariae) while the leaves are still moist.”, “aphids” for “beetle larvae”

Sinapis = assay: Post-emergence test; assay type: in vivo; conditions: 250 g ai/ha, after three weeks
Experimental: as §1

sugar beet [7] = assay: Post-emergence test; assay type: in vivo; conditions: after three weeks
Experimental: as §1

Soya bean = assay: Post-emergence test; assay type: in vivo; conditions: 250 g ai/ha, after three weeks
Experimental: as §1

Meloidogyne incognita = assay: Meloidogyne test; assay type: in vivo; conditions: Meloidogyne incognita egg/larvae on lettuce in sand
Experimental: [table] To produce a suitable preparation of active compound, 1 part by weight of active compound is mixed with the stated amounts of solvent and emulsifier, and the concentrate is diluted with water to the desired concentration. Containers are filled with sand, solution of active compound, Meloidogyne incognita egg/larvae suspension and lettuce seeds. The lettuce seeds germinate and the plants develop. On the roots, galls are formed. After the desired period of time, the nematicidal action in % is determined using the formation of galls as a measure. 100% means that no galls have been found; 0% means that the number of galls on the treated plants corresponds to that on the untreated control.

sugar beet [8] = assay: Pre-emergence test; assay type: in vivo; conditions: 250 g ai/ha, after three weeks
Experimental: (§3) [table] To produce a suitable preparation of active compound, 1 part by weight of active compound is mixed with the stated amount of solvent, the stated amount of emulsifier is added and the concentrate is diluted with water to the desired concentration. Seeds of the test plants are sown in normal soil. After about 24 hours, the soil is sprayed with the preparation of active compound such that the particular amounts of active compound desired are applied per unit area. The concentration of the spray liquor is chosen such that the particular amounts of active compound desired are applied in 1000 1 of water/ha. After three weeks, the degree of damage to the plants is rated in % damage in comparison to the development of the untreated control. [table]

oilseed rape = assay: Pre-emergence test; assay type: in vivo; conditions: 250 g ai/ha, after three weeks
Experimental: as §3

Lolium = assay: Pre-emergence test; assay type: in vivo; conditions: 250 g ai/ha, after three weeks
Experimental: as §3

Setaria [9] = assay: Pre-emergence test; assay type: in vivo; conditions: 250 g ai/ha, after three weeks
Experimental: as §3

Avena fatua [10] = assay: Pre-emergence test; assay type: in vivo; conditions: 250 g ai/ha, after three weeks
Experimental: as §3

Bromus = assay: Pre-emergence test; assay type: in vivo; conditions: 250 g ai/ha, after three weeks
Experimental: as §3

[11] = logP (HPLC; acetonitrile); assay type: physicochemical; conditions: for logP (pH2): pH 2
Description: Yield: 2.4 g ( ? 41.62% of theory), logP (acidic) 4.54 (HPLC; acetonitrile).

Structure (SMILES)	% damage Echinochloa (Echinochloa; 250 g ai/ha) [%]	% damage Avena fatua (Avena fatua [1]; 250 g ai/ha) [%]	kill of beetle larvae [2]	% damage Amaranthus (Amaranthus) [%]	% damage Alopecurus (Alopecurus; 250 g ai/ha) [%]	% damage Setaria (Setaria [3]) [%]	kill of caterpillars [4]	effect on spider mites [5]	also measured
COC1CCC2(CC1)NC(=O)C(c1nc(-c3ccc(Cl)cc3)sc1C)=C2O (single isomer, unassigned) [Example I-1-A-a-3]	100	100	good activity	–	–	–	–	–	% damage rice (rice): 10%; % damage Stellaria (Stellaria): 90%; % damage Digitaria (Digitaria; 250 g ai/ha): 100%
CCOC1CCC2(CC1)NC(=O)C(c1nc(-c3ccc(Cl)cc3)sc1C)=C2O (single isomer, unassigned) [Example I-1-A-a-4]	100	100	good activity	95	95	100	good activity	good activity	% damage Abutilon (Abutilon): 80%
COC1CCC2(CC1)NC(=O)C(c1nc(-c3ccc(C)cc3)sc1C)=C2O (single isomer, unassigned) [Example I-1-A-a-8]	–	–	good activity	–	–	–	–	–	kill of aphids [6]: good activity
Cc1sc(-c2ccc(Cl)cc2)nc1C1=C(O)C2(CCC(C)CC2)NC1=O (stereo not shown) [Example I-1-A-a-1]	95	80	good activity	70	80	–	good activity	–	% damage Sinapis (Sinapis): 80%
Cc1sc(-c2ccc(Cl)cc2)nc1C1=C(O)C(C)(C)NC1=O [Example I-1-A-a-2]	90	–	good activity	90	70	95	good activity	–	–
Cc1sc(-c2ccc(Cl)cc2)nc1C1=C(O)C2(CCOCC2)NC1=O [Example I-1-A-a-5]	100	–	good activity	90	80	–	good activity	good activity	kill of aphids [6]: good activity
Cc1sc(-c2ccc(Cl)cc2)nc1C1=C(O)C2(CCCOC2)NC1=O (stereo not shown) [Example I-1-A-a-6]	–	–	good activity	–	–	–	good activity	good activity	kill of aphids [6]: good activity; % damage sugar beet (sugar beet [7]; 125 g ai/ha): 0%; % damage Echinochloa (Echinochloa; 125 g ai/ha): 90%; % damage Alopecurus (Alopecurus; 125 g ai/ha): 90%; % damage Digitaria (Digitaria; 125 g ai/ha): 95%; % damage Avena fatua (Avena fatua [1]; 125 g ai/ha): 90%
COC1CCC2(CC1)NC(=O)C(c1nc(-c3ccc(Cl)cc3)sc1C)=C2OC(=O)C(C)C (stereo not shown) [Example I-1-A-b-1]	100	100	–	80	95	100	–	–	% damage Abutilon (Abutilon): 80%
CCOC(=O)OC1=C(c2nc(-c3ccc(Cl)cc3)sc2C)C(=O)NC12CCC(OC)CC2 (stereo not shown) [Example I-1-A-c-1]	95	95	good activity	–	80	90	good activity	–	–
Cc1sc(-c2ccc(Cl)cc2)nc1C1=C(O)C(C)(C)OC1=O [Example I-2-A-a-2]	100	90	good activity	–	–	95	–	good activity	% damage sugar beet (sugar beet [7]; 250 g ai/ha): 0%; % damage Soya bean (Soya bean): 0%; % damage Digitaria (Digitaria; 250 g ai/ha): 90%; nematicidal action (formation of galls) (Meloidogyne incognita): good activity; % damage sugar beet (sugar beet [8]): 0%; % damage oilseed rape (oilseed rape): 0%; % damage Lolium (Lolium): 100%; % damage Setaria (Setaria [9]): 100%; % damage Avena fatua (Avena fatua [10]): 90%; % damage Bromus (Bromus): 90%
Cc1oc(-c2ccccc2)nc1C1=C(O)C(C)(C)OC1=O [Example I-2-B-a-2]	–	–	–	–	–	–	–	–	logP (pH2) [11]: 3.43
CCOC(=O)C1(OC(=O)Cc2nc(-c3ccc(Cl)cc3)sc2C)CCC(OC)CC1 (stereo not shown) [III-A-1]	–	–	–	–	–	–	–	–	chromatographic logP ([11]; acidic, HPLC, acetonitrile): 4.54
CCOC(=O)C(C)(C)OC(=O)Cc1nc(-c2ccc(Cl)cc2)sc1C [III-A-2]	–	–	–	–	–	–	–	–	logP (pH2) [11]: 4.53
